20 compounds from US20240360179A1, “STAPLED PEPTIDES AND METHODS THEREOF” (FOG PHARMACEUTICALS, INC., priority 2021, published 2024) can be followed below.

In the test the test system is COLO320DM cells. As to the kind of experiment: COLO320DM proliferation assay (CellTiter-Glo). In kind it is cell-based, human. As to conditions: read-out: COLO320DM Proliferation Abs IC50. The protocol: COLO320DM proliferation assay IC50: In some embodiments, inhibition of cell proliferation by provided technologies were assessed using cell lines related to or from certain conditions, disorders or diseases. In some embodiments, cell proliferation was assessed in COLO320DM cells. In some embodiments, assessment was performed using the following procedure: On Day 1, cultured COLO320DM cells in a T75 flask were trypsinized in 3 mL of 0.250% trypsin/EDTA for 5 min and quenched with 10 mL RPMI-1640+4% HI FBS assay media. The cells were spun down at 1200 rpm for 5 min, the cell pellet collected and re-suspended at 5000 cells/mL in assay media. Using a Combi liquid handler, cells were dispensed (50 uL, 250 cells/well) into three 384 well plates. Plates were incubated at 37° C., 5% CO2 for 18-22 h. On day 2, compounds were added. A liquid handling system was used to prepare the compound dilution and dispense compound into assay plates. The compounds were serially diluted 1/2 in 90% DMSO to create a 7 point dose curve. From compound plate, 100 nL of compound were dispensed directly into wells of the assay plates to create a dose curve starting at 20 uM and ending at 313 nM. Assay plates were incubated at 37° C., 5% CO2 for 96 h. On day 6, assay plates were removed from the incubator and allowed to sit at room temperature for 30 min. Using a liquid handler, 20 uL of CellTiter Glo reagent was added to each well. The assay plates were shaken for 2 min and allowed to sit on the bench for 10-15 minutes. The assay plates were read using the CellTiter Glo protocol on a GloMax microplate reader, and the data analyzed using GraphPad Prism. Activities of various agents, including various stapled peptides in Table E2, were confirmed.
In some embodiments, an assessment was performed as follows. On day 0, cells were seeded in cell culture media (RPMI1640, 4% FBS) in a 96-well plate at desired density, typically at 1000 cells/well. On day 1, 10 mM agent stock solution (in DMSO) was first serially diluted into DMSO at 1:2 ratio, followed by diluting with cell culture media at two times of the final concentrations. Finally, agent-containing media were introduced to cell culture wells already having the same volume of cell culture media. Cells were incubated with agents for desired days before lysed for CellTiter-Glo® Luminescent Cell Viability Assay according to the manufacture instruction (Promega, G7570). Luminescent signal was obtained from a microplate reader (GloMax, Promega). Cell viability data was expressed as % relative to DMSO control wells.
Proliferation Assay. In some embodiments, various proliferation assays are utilized to characterize or assess provided technologies. In some embodiments, on day 0, cells were seeded in cell culture media in a 96-well plate at desired density, typically at 1000 cells/well. On day 1, 10 mM compound stock solution was first serially diluted into DMSO, followed by diluting with cell culture media at two times of the final concentrations. Finally, compound-containing media were introduced to cell culture wells already having the same volume of cell culture media. Cells were incubated with compounds for desired days before lysed for CTG according to the manufacture instruction (G7570, Promega). Luminescent signal was obtained from a microplate reader (GloMax, Promega).
Background: In ATP-based viability assays light output follows the ATP content of the culture.
Take “Ac-PL3-Asp-Ile-B5-Asp-3COOHF-Ala-Ala-Phe-sCH2S*3-PyrS2-Phe-34ClF-TriAzLys*3-NH2 [I-1866]”: the IC50 fell in the range of 10 to 20 µM.

“Ac-PL3-Asp-Npg-B5-Asp-3COOHF-Aib-Ala-Phe-Lys*3-PyrS2-3Thi-34ClF-GlnR*3-Ala-Ala-Ala-[mPEG37]-Lys [I-1708]”: the IC50 was at most 10 µM.

“Ac-PL3-Asp-DipA-B5-Asp-3COOHF-CyLeu-Ala-Phe-Lys*3-PyrS2-2F3MeF-34ClF-GlnR*3-Val-NH2 [I-1773]”: the IC50 was at most 10 µM.

For the compound “Ac-PL3-Asp-DipA-B5-Asp-3COOHF-CyLeu-Ala-Phe-Lys*3-PyrS2-2F3MeF-BztA-GlnR*3-Leu-NH2 [I-1770]”, the IC50 is at most 10 µM.

Turning to “Ac-PL3-Asp-Ile-B5-Asp-3COOHF-Phe-Ala-Phe-Lys*3-PyrS2-3Thi-34MeF-GlnR*3-NH2 [I-1102]”, the IC50 was at most 10 µM.

On to “Ac-PL3-Asp-DipA-B5-Asp-3COOHF-Ala-Ala-Phe-Lys*3-PyrS2-3Thi-34ClF-GlnR*3-Ala-Ala-[mPEG37]-Lys-NH2 [I-1704]”, for which the IC50 is at most 10 µM.

Consider “Ac-PL3-Asp-DipA-B5-Asp-3COOHF-Val-Ala-Phe-Lys*3-PyrS2-Phe-BztA-GlnR*3-dPro-NH2 [I-1855]”, for which the IC50 is at most 10 µM.

For “Ac-PL3-Asp-DipA-B5-Asp-3COOHF-Ala-Ala-Phe-Lys*3-PyrS2-3Thi-34ClF-GlnR*3-Ala-Ala-[C18-dPEG2]-Lys-NH2-NH2 [I-1791]”, the IC50 was at most 10 µM.

Regarding `CC(=O)N1CCC[C@]12CC=CCCCC1(CCCC=CCCCOC(=O)N3CC[C@@]4(C3)NC(=O)[C@H](CCCCNC(=O)CC[C@@H](C(=O)N[C@@H](C)C(N)=O)NC(=O)[C@H](Cc3csc5ccccc35)NC(=O)[C@H](Cc3ccccn3)NC4=O)NC(=O)[C@H](Cc3ccccc3)NC(=O)[C@H](C)NC(=O)C(C)(C)NC(=O)[C@H](Cc3cccc(C(=O)O)c3)NC(=O)[C@H](CC(=O)O)NC1=O)NC(=O)[C@H](CC(C)(C)C)NC(=O)[C@H](CC(=O)O)NC2=O` (relative stereo) [I-299, Ac-PL3-Asp-Npg-B5-Asp-3COOHF-Aib-Ala-Phe-Lys*3-PyrS2-2PyrA-BztA-GlnR*3-Ala-NH2], the IC50 lay in the range of 10 to 20 µM.

Consider “Ac-PL3-Asp-Npg-B5-Asp-3COOHF-Aib-Ala-Phe-Lys*3-PyrS2-hCha-BztA-GlnR*3-Val-Glu-Ala-NH2 [I-1347]”, for which the IC50 is over 20 µM.

On to “Ac-PL3-Asp-Ile-B5-Asp-3COOHF-Aib-Ala-Phe-GlnR*3-PyrS2-Phe-34ClF-1MeK*3-NH2 [I-1370]”, for which the IC50 is at most 10 µM.

“Ac-PL3-Asp-Npg-B5-Asp-3COOHF-Aib-Ala-Phe-Lys*3-PyrS2-2NH2F-BztA-GlnR*3-Ala-NH2 [I-1736]”: the IC50 was at most 10 µM.

Take “Ac-PL3-Asp-DipA-B5-Asp-3COOHF-Ala-Ala-Phe-Lys*3-PyrS2-3Thi-34ClF-GlnR*3-Ala-Ala-[Ac-dPEG2]-Lys-NH2-NH2 [I-1787]”: the IC50 is at most 10 µM.

As to “Ac-PL3-Asp-Ile-B5-Asp-3COOHF-Phe-Ala-Phe-Lys*3-PyrS2-Phe-34MeF-GlnR*3-NH2 [I-1107]”, the IC50 was at most 10 µM.

Regarding “Ac-PL3-Asp-Npg-B5-Asp-3COOHF-Aib-Ala-Phe-Lys*3-PyrS2-3Thi-BztA-GlnR*3-Ala-Ala-Leu-Leu-NH2 [I-806]”, the IC50 is at most 10 µM.

In the case of “Ac-PL3-Asp-DipA-B5-Asp-3COOHF-Ala-Ala-Phe-Lys*3-PyrS2-3Thi-34ClF-GlnR*3-Ala-Ala-[mPEG8]-Lys-NH2 [I-1703]”, the IC50 was at most 10 µM.

As to “Ac-PL3-Asp-Ile-B5-Asp-3COOHF-Ala-Ala-Phe-TriAzLys*3-PyrS2-Phe-34ClF-sAla*3-NH2 [I-1863]”, the IC50 was at most 10 µM.

As to “Ac-PL3-Asp-Npg-B5-Asp-3COOHF-Aib-Ala-Phe-Lys*3-PyrS2-[4PyPrpc]2NH2F-BztA-GlnR*3-Ala-NH2 [I-1743]”, the IC50 is 10 to 20 µM.

For the compound “Ac-PL3-Asp-Ile-B5-Asp-3COOHF-Aib-Ala-Phe-sCH2S*3-PyrS2-Phe-34ClF-TriAzLys*3-NH2 [I-1859]”, the IC50 was at most 10 µM.

With “Ac-PL3-Asp-DipA-B5-Asn-3COOHF-nLeu-Ala-Phe-Lys*3-PyrS2-3Thi-34ClF-GlnR*3-NH2 [I-1638]”, the IC50 was at most 10 µM.
